Patent EP2140864A2 (H. Lundbeck A/S, priority 2001, dated 2002)

Tests used:
human 5HT1B = target: T1, human 5HT1B (Homo sapiens, UniProt P28222); assay: Radioligand binding, 5HT1B receptor ([3H]-serotonin); conditions: for Ki: Table 7, read-out: h5HT1B Ki; for selectivity ratio h5HT1B: Table 8, Ki h5HT1B divided by Ki hGAL3
T1 construct: expressed in transfected cells
Description: Human 5HT1B, 5HT1D, 5HT1E, 5HT1F, and 5HT7 Receptors: The cell lysates of LM(tk-) clonal cell line stably transfected with the genes encoding each of these 5HT receptor-subtypes were prepared as described above. Cell membranes were suspended in 50mM Tris-HCl buffer (pH 7.4 at 37°C) containing 10 mM MgCl2, 0.2 mM EDTA, 10 µM pargyline, and 0.1% ascorbate. […] Nonspecific binding was determined in the presence of 10 µM serotonin. The bound radioligand was separated by filtration through GF/B filters using a cell harvester.
(§1) Binding data were analyzed using nonlinear regression and statistical techniques available in the GraphPAD Prism package (San Diego, CA). Enzymatic assay data were derived from a standard curve of reference compound data.

human 5HT1A receptor = target: T2, human 5HT1A receptor (Homo sapiens, UniProt P08908); assay: Radioligand binding, 5-HT1A receptor (3H-8-OH-DPAT); conditions: for Ki: Table 7, read-out: h5HT1A Ki; for selectivity ratio h5HT1A: Table 8, Ki h5HT1A divided by Ki hGAL3
T2 construct: expressed in transfected cells; host or cells: COS-7 cells, transient (pCEXV-3 vector)
T2 sequence (P08908 1-422): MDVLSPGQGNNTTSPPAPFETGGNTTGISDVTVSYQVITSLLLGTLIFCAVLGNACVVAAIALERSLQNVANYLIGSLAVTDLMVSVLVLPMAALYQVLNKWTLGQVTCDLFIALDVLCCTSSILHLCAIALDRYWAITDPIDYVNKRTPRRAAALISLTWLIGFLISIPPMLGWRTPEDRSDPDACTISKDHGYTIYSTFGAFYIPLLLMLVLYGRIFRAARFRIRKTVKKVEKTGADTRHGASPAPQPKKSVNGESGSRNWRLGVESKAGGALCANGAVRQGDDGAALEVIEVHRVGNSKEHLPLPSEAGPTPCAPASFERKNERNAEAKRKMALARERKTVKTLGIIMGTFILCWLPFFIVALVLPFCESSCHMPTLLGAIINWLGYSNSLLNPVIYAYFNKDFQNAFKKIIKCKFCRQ
Description: 5-HT1A Receptor: The cDNA corresponding to the 5-HT1A receptor open reading frames and variable non-coding 5'-and 3'-regions, was cloned into the eukaryotic expression vector pCEXV-3. These constructs were transfected transiently into COS-7 cells by the DEAE-dextran method (Cullen, 1987), and harvested after 72 hours. Radioligand binding assays were performed as described above for the 5-HT2A receptor, except that ^3H-8-OH-DPAT was used as the radioligand and nonspecific binding was determined by the addition of 10 µM mianserin.
as §1

[1] = target: T3, human α1D adrenergic receptor (Homo sapiens, UniProt P25100); assay: Radioligand binding, α1D adrenergic receptor; conditions: for Ki: Table 9, read-out: hα1D Ki; for selectivity ratio hα1D: Table 10, Ki hα1D divided by Ki hGAL3
T3 construct: expressed in transfected cells
T3 sequence (P25100 1-572): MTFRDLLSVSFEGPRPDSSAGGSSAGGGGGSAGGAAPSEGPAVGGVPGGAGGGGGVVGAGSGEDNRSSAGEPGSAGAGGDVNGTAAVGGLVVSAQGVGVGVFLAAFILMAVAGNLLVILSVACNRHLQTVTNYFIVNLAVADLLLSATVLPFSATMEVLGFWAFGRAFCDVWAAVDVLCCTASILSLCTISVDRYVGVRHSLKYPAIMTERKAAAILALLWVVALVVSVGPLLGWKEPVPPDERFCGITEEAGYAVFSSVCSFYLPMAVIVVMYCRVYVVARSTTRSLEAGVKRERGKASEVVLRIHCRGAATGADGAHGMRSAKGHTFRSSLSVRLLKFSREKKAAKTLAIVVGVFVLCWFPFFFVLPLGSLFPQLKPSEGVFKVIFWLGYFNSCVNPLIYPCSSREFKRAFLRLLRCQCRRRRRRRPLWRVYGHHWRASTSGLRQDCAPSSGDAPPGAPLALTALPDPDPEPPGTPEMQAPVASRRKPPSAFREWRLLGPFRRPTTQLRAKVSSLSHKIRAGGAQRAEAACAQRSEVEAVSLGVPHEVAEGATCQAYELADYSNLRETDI
Source text: (§2) Other receptors: Cell membranes expressing human dopamine D1, D2, D4 and rat D3 receptors were purchased through BioSignal, Inc. (Montreal, Canada). Binding assays using the histamine H1 receptor; dopamine receptors; and α1A, α1E, and α2 adrenergic receptors may be carried out according to the procedures described in U.S. Patent No. 5,780,485, the disclosure of which is hereby incorporated by reference in its entirety into this application. Binding assays using the dopamine D5 receptor may be carried out according to the procedures described in U.S. Patent No. 5,882,855, the disclosure of which is hereby incorporated by reference in its entirety into this application. Binding assays for the human α1D adrenergic receptor may be carried out according to the procedures described in U.S. Patent No. 6,156,518, the disclosure of which is hereby incorporated by reference in its entirety into this application.
as §1

human α2C adrenoceptor = target: T4, human α2C adrenoceptor (Homo sapiens, UniProt P18825); assay: Radioligand binding, α2C adrenergic receptor; conditions: for Ki: Table 9, read-out: hα2C Ki; for selectivity ratio hα2C: Table 10, Ki hα2C divided by Ki hGAL3
T4 construct: expressed in transfected cells
T4 sequence (P18825 1-462): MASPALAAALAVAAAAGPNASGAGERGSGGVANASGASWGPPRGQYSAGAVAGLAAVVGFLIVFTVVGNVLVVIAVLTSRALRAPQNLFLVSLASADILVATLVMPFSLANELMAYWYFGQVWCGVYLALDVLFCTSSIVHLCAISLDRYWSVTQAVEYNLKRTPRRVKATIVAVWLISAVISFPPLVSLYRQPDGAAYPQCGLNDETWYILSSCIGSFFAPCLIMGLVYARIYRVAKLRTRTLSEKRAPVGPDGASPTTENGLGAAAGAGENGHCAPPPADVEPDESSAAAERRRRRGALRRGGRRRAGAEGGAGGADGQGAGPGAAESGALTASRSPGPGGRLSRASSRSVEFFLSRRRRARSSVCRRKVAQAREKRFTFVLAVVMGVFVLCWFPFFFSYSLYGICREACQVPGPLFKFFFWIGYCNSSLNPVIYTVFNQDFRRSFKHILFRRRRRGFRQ
Source text: as §2, §1

human 5HT4 receptor = target: T5, human 5HT4 receptor (Homo sapiens, UniProt Q13639); assay: Radioligand binding, 5-HT4 receptor; conditions: for Ki: Table 7, read-out: h5HT4 Ki; for selectivity ratio h5HT4: Table 8, Ki h5HT4 divided by Ki hGAL3
T5 construct: expressed in transfected cells
T5 sequence (Q13639 whole entry): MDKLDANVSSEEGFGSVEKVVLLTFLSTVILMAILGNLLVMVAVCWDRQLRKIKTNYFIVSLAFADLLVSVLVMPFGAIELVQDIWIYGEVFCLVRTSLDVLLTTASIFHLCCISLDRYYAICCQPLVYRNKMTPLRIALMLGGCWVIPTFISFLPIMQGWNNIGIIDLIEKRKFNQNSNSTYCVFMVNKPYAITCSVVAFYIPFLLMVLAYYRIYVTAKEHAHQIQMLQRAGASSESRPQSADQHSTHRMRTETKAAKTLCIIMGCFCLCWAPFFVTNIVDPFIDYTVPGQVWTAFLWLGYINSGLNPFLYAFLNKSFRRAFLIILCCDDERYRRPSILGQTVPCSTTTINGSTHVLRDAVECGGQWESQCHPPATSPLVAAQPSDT
Description: Other 5-HT Receptors: Other serotonin receptor binding assays were performed according to published methods: rat 5HT2C receptor (Julius et al., 1988); and 5-HT6 (Monsma, et al., 1993). The binding assays using the 5-HT4 receptor were performed according to the procedures described in U.S. Patent No. 5,766,879, the disclosure of which is hereby incorporated by reference in its entirety into this application.
as §1

human dopamine D1 = target: T6, human dopamine D1 (Homo sapiens, UniProt P21728); assay: Radioligand binding, dopamine D1 receptor; conditions: for Ki: Table 9, read-out: hD1 Ki; for selectivity ratio hD1: Table 10, Ki hD1 divided by Ki hGAL3
T6 construct: purchased BioSignal, Inc. (Montreal, Canada); host or cells: membranes of cells expressing the receptor
T6 sequence (P21728 whole entry): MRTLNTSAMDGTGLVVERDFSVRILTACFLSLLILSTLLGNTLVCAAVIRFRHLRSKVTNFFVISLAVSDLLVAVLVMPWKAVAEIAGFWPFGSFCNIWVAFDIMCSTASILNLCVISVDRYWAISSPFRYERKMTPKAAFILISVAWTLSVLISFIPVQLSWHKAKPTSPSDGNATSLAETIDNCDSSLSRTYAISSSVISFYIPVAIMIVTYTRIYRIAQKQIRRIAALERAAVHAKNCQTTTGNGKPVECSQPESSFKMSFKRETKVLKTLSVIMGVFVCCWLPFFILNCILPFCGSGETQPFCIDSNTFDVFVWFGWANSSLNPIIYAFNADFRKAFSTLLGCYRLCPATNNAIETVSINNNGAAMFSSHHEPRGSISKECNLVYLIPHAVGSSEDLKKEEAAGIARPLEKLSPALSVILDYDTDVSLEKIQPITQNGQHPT
Source text: as §2, §1

T1 sequence (P28222 whole entry): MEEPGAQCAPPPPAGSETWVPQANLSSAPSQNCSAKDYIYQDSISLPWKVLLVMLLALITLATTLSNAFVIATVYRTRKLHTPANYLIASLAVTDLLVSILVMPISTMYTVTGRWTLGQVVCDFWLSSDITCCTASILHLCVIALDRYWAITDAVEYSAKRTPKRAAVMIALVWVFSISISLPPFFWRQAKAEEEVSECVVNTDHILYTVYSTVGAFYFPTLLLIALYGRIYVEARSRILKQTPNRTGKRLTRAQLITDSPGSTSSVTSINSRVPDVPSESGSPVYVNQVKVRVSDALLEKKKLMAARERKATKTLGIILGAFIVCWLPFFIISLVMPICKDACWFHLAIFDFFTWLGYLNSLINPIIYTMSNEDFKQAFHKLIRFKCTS

## O=C1C(=Nc2ccc(C(F)(F)F)cc2)c2ccccc2N1c1ccccc1 [Example 95, 1-PHENYL-3-[[4-(TRIFLUOROMETHYL)PHENYL]IMINO]-1,3-DIHYDRO-2H-INDOL-2-ONE]
Human 5HT1B
  Ki: 5.23 µM
  selectivity ratio h5HT1B: >100
Human 5HT1A receptor
  Ki: 28.3 µM
  selectivity ratio h5HT1A: >100
[1]
  Ki: 3.47 µM
  selectivity ratio hα1D: >100
Human α2C adrenoceptor
  Ki: 48.6 µM
  selectivity ratio hα2C: >100
Human 5HT4 receptor
  Ki: 3.03 µM
  selectivity ratio h5HT4: >100
Human dopamine D1
  Ki: 4.39 µM
  selectivity ratio hD1: >100

## CN(C)c1cc(Nc2ccc(Cl)c(Cl)c2)nc(Nc2ccccc2)n1 [Example 60]
Human 5HT1B
  Ki: 5.46 µM
  selectivity ratio h5HT1B: >30
Human 5HT1A receptor
  Ki: 33.7 µM
  selectivity ratio h5HT1A: >100
[1]
  Ki: 4.23 µM
  selectivity ratio hα1D: >30
Human α2C adrenoceptor
  Ki: 7.2 µM
  selectivity ratio hα2C: >30
Human 5HT4 receptor
  Ki: 1.18 µM
  selectivity ratio h5HT4: 14
Human dopamine D1
  Ki: 0.6 µM
  selectivity ratio hD1: 7

## O=C1C(=Nc2cccc(C(F)(F)F)c2)c2ccccc2N1c1ccccc1 [Example 92, 1-PHENYL-3- [[3-(TRIFLUOROMETHYL)PHENYL]IMINO]-1,3-DIHYDRO-2H-INDOL-2-ONE]
Human 5HT1B
  selectivity ratio h5HT1B: >100
Human 5HT1A receptor
  selectivity ratio h5HT1A: >100
[1]
  selectivity ratio hα1D: >100
Human α2C adrenoceptor
  selectivity ratio hα2C: >100
Human 5HT4 receptor
  selectivity ratio h5HT4: 2
Human dopamine D1
  selectivity ratio hD1: >100

## Cc1ccc(Nc2cc(N3CCCCC3)nc(N3CCN(c4ncccc4C(F)(F)F)CC3)n2)cc1 [Example 34]
Human 5HT1B
  Ki: 1.06 µM
  selectivity ratio h5HT1B: >30
Human 5HT1A receptor
  selectivity ratio h5HT1A: >100
[1]
  Ki: 1.24 µM
  selectivity ratio hα1D: >30
Human α2C adrenoceptor
  Ki: 8.83 µM
  selectivity ratio hα2C: >100
Human 5HT4 receptor
  Ki: 20.8 µM
  selectivity ratio h5HT4: >100
Human dopamine D1
  Ki: 0.29 µM
  selectivity ratio hD1: 13

## CN(CCc1c[nH]c2ccccc12)c1nc(Nc2ccc(F)c(F)c2)cc(N2CCCCC2)n1 [Example 15]
Human 5HT1B
  Ki: 0.487 µM
  selectivity ratio h5HT1B: 7
Human 5HT1A receptor
  Ki: 5.1 µM
  selectivity ratio h5HT1A: >30
[1]
  Ki: 0.48 µM
  selectivity ratio hα1D: 7
Human α2C adrenoceptor
  Ki: 8.2 µM
  selectivity ratio hα2C: >100
Human 5HT4 receptor
  Ki: 2.3 µM
  selectivity ratio h5HT4: >30
Human dopamine D1
  Ki: 0.344 µM
  selectivity ratio hD1: 5

## Cc1ccc(Nc2cc(N(C)C)nc(N(C)CCc3c[nH]c4ccccc34)n2)cc1 [Example 77]
Human 5HT1B
  Ki: 0.365 µM
  selectivity ratio h5HT1B: 5
Human 5HT1A receptor
  Ki: 5.47 µM
  selectivity ratio h5HT1A: >30
[1]
  Ki: 0.217 µM
  selectivity ratio hα1D: 3
Human α2C adrenoceptor
  Ki: 0.634 µM
  selectivity ratio hα2C: 8
Human 5HT4 receptor
  Ki: 1.32 µM
  selectivity ratio h5HT4: 17
Human dopamine D1
  Ki: 0.06 µM
  selectivity ratio hD1: 0.8
